Results on five molecules are retold here after ChEMBL document CHEMBL1177851, “Some new biologically active metal-based sulfonamide” (Eur J Med Chem, 2010).

Molecules are shown by their SMILES. ≈ marks a conversion by molar mass, not a printed value. Where only a bound is given, the exact number is not on record here.

The subject of data set [1] is Bacillus subtilis. Briefly: Antibacterial activity against Bacillus subtilis at 50 ug/ml after 24 hrs by agar-well diffusion assay. Conditions: read-out: IZ. In kind it is functional. On the technique in general: In agar diffusion tests the substance spreads into inoculated agar from a disc or well.
Data set [2] has as its system Aspergillus flavus. Briefly: Antifungal activity against Aspergillus flavus at 200 ug/ml after 7 days. Conditions: 168 h. In kind it is functional.
Data set [3] relates to Candida albicans. The data set can be described thus: Antifungal activity against Candida albicans at 200 ug/ml after 7 days. The data set is classed as functional. The following applies: 168 h.
Data set [4] has as its system Trichophyton longifusum. Briefly: Antifungal activity against Trichophyton longifusum at 200 ug/ml after 7 days. The data set is classed as functional. The following applies: 168 h.
The test system of data set [5] is Pseudomonas aeruginosa. Briefly: Antibacterial activity against Pseudomonas aeruginosa at 50 ug/ml after 24 hrs by agar-well diffusion assay. The data set is classed as functional. Conditions: read-out: IZ.
Data set [6] deals with Staphylococcus aureus. Briefly: Antibacterial activity against Staphylococcus aureus at 50 ug/ml after 24 hrs by agar-well diffusion assay. The data set is classed as functional. The following applies: read-out: IZ.
Data set [7] relates to Shigella flexneri. Briefly: Antibacterial activity against Shigella flexneri at 50 ug/ml after 24 hrs by agar-well diffusion assay. In kind it is functional. Conditions: read-out: IZ.
Data set [8] concerns Escherichia coli. The data set can be described thus: Antibacterial activity against Escherichia coli at 50 ug/ml after 24 hrs by agar-well diffusion assay. The data set is classed as functional. Conditions: read-out: IZ.
Data set [9] can be described thus: Cytotoxicity against Artemia salina leach eggs. The following applies: Egg, read-out: LD50 (the source's name).
In data set [10] the test system is Fusarium solani. Briefly: Antifungal activity against Fusarium solani at 200 ug/ml after 7 days. The data set is classed as functional. The following applies: 168 h.
The subject of data set [11] is Microsporum canis. Briefly: Antifungal activity against Microsporum canis at 200 ug/ml after 7 days. Conditions: 168 h. In kind it is functional.
For data set [12], the system named is Salmonella enterica. The data set can be described thus: Antibacterial activity against Salmonella typhi at 50 ug/ml after 24 hrs by agar-well diffusion assay. The following applies: read-out: IZ. The data set is classed as functional, Salmonella enterica subsp. enterica serovar Typhi.
Data set [13] has as its system Nakaseomyces glabratus. The data set can be described thus: Antifungal activity against Candida glabrata at 200 ug/ml after 7 days. In kind it is functional. The following applies: 168 h.

One may read the inhibition as the change of the read-out against control, counted positive when it falls. Read a low inhibition as a weak effect. `O=S(=O)(Nc1ncccn1)c1ccc(/N=C/c2cc(Br)ccc2O)cc1`: the zone of inhibition at 50 µg/mL in [1] is 15 mm; in [5] it was 12 mm; in data set [6] it was 16 mm; in data set [7] it was 8 mm; in data set [8], 17 mm; in data set [12], 13 mm. Also, the inhibition at 200 µg/mL in data set [2] came to 78%; in data set [3], 34%; in data set [4], 81%; in data set [10], 48%; in data set [11], 0%; in data set [13] it was 80%. For the same molecule, the LC50 in [9] is > 3.16 mM.
`Cc1cc(C)nc(NS(=O)(=O)c2ccc(/N=C/c3cc(Br)ccc3O)cc2)n1`: the zone of inhibition at 50 µg/mL in [1] is 15 mm; in data set [5] it was 13 mm; in data set [6], 17 mm; in [7], 6 mm; in data set [8] it was 18 mm; in [12], 11 mm. Also, the inhibition at 200 µg/mL in data set [2] was determined as 38%; in data set [3], 0%; in data set [4], 80%; in data set [10], 20%; in data set [11] it was 73%; in data set [13], 0%. Moreover, the LC50 in [9] was > 3.16 mM.
The MIC is the lowest concentration that inhibits growth of the organism. Low values mean a more susceptible organism, high ones a less susceptible organism. In data set [2], `C[C@@H]1[C@H](O)[C@@H](C)/C=C/C=C/C=C/C=C/C=C/C=C/C=C/[C@H](O[C@@H]2O[C@H](C)[C@@H](O)[C@H](N)[C@@H]2O)C[C@@H]2O[C@](O)(C[C@@H](O)C[C@@H](O)[C@H](O)CC[C@@H](O)C[C@@H](O)CC(=O)O[C@H]1C)C[C@H](O)[C@H]2C(=O)O` [AMPHOTERICIN B] gave an MIC of 20 µg/mL (≈ 21.6 µM).
Turning to `C[C@@H](O)[C@H]1C(=O)N2C(C(=O)O)=C(SCCNC=N)C[C@H]12` [IMIPENEM ANHYDROUS], the zone of inhibition at 50 µg/mL in [1] is 26 mm; in data set [5], 24 mm; in data set [6] it was 26 mm; in data set [7] it was 20 mm; in [8] it was 24 mm; in [12], 25 mm.
In the case of `Clc1ccc(COC(Cn2ccnc2)c2ccc(Cl)cc2Cl)c(Cl)c1` (stereo not drawn) [MICONAZOLE], the minimum inhibitory concentration (MIC) is 111 µg/mL (≈ 266 µM) in data set [3]; 70 µg/mL (≈ 168 µM) in data set [4]; 111 µg/mL (≈ 266 µM) in [10]; 98.4 µg/mL (≈ 236 µM) in [11]; 73.2 µg/mL (≈ 176 µM) in [13].
